The results in this text go back to article PMC6271860, “Bioactive 30-Noroleanane Triterpenes from the Pericarps of Akebia trifoliata” (Molecules, 2014).

The subject of one data set is B. subtilis (CMCC63501). As to the kind of experiment: Antibacterial microdilution titre assay (resazurin), MIC. As to conditions: Gram-positive, 37 °C, 5–6 h.
Data set [1] deals with S. dysenteriae (CMCC51252). The data set is described as above. The data set is classed as cell-based. As to conditions: Shigella dysenteriae.
A further data set concerns S. aureus (CMCC26003). The data set is described as above. As to conditions: Gram-positive, 37 °C, 5–6 h.
Another data set has as its system MRSA. The description is as above. As to conditions: for MIC: MRSA, Gram-positive, 37 °C, 5–6 h.
For data set [2], the system named is S. typhimurium (CMCC44102). Described as above. As to conditions: Salmonella enterica.
The subject of the next data set is E. coli (CMCC44102). The data set is described as above. As to conditions: Escherichia coli.
A further data set relates to B. cereus (CMCC63302). Described as above. As to conditions: Gram-positive, 37 °C, 5–6 h.
A short description of a further data set: Cytotoxicity, MTT method. As to conditions: human. As to the method:
(§1) These compounds were also tested for their in vitro cytotoxicity against three human tumor cell lines, A549 (human lung adenocarcinoma), HeLa (human cervical carcinoma) and HepG2 (human liver hepatocellular carcinoma), using the MTT method as described.
(§2) The three tumor cell lines were generously provided by Kunming Institute of Zoology, Chinese Academy of Sciences. The cytotoxic activities of the tested compounds were assayed according to the MTT method by using 96 well plates. Briefly, the cells were cultured in RPMI-1640 medium, supplemented with 10% fetal bovine serum in a humidified atmosphere with 5% CO2 at 37 °C. One hundred μL of adherent cells at the density of 5 × 10^4 cell/mL was seeded into each well of 96-well cell culture plates and incubated in 5% CO2 at 37 °C for 24 h to form a monolayer on the flat bottoms. Then, removed the supernatant per well and subsequently added with 100 μL of fresh medium and 100 μL of medium containing a test compound. The plate was then incubated in 5% CO2at 37 °C. After 72 h, 20 μL of 5 mg/mL MTT in DMSO was added into each well and incubated for 4 h. The supernatant per well was carefully removed and 150 μL of DMSO was added. The plate was then vortex shaken for 15 min to dissolve blue formazan crystals. The optical density (OD) of each well was measured on a Genois microplate reader (Tecan GENios, Männedorf, Switzerland) at the wavelength of 570 nm. All experiments were performed in triplicate and adriamycin was used as a positive control. In each experiment, each of the tumor cell lines was exposed to the test compound at concentrations of 50, 25, 12.5, 6.25, 3.125, 1.5625 µg/mL. The inhibitory rate of cell growth was calculated according to the following formula: Inhibition rate (%) = (ODcontrol− ODtreated)/ODcontrol× 100%. IC50 values were calculated by SPSS 16.0 statistic software. The values were based on three individual experiments and expressed as means ± standard deviation (SD).

Data set [3] has as its system A549 (human lung adenocarcinoma). As to the kind of experiment: Cytotoxicity, MTT method. As to conditions: read-out: Cytotoxicity IC50, A549 cells, 72 h, mean ± SD (n = 3). The method, then:
as §1, §2
(Tetrazolium assays rely on reduction of a dye to a coloured formazan, in cell work by metabolically active cells.)

Data set [4] concerns HeLa (human cervical carcinoma). As to the kind of experiment: Cytotoxicity, MTT method. As to conditions: read-out: Cytotoxicity IC50, HeLa cells, 72 h, mean ± SD (n = 3). The method, then:
as §1, §2

The mark [5] stands for this setting: Bacillus subtilis, CMCC63501, B. subtilis (CMCC63501).
Setting [6] is: Staphylococcus aureus, CMCC26003, S. aureus (CMCC26003).
The mark [7] stands for this setting: Bacillus cereus, CMCC63302, B. cereus (CMCC63302).
Where [8] appears, read: Cytotoxicity IC50, A549 cells, mean ± SD (n = 3).
Where [9] appears, read: Cytotoxicity IC50, HeLa cells, mean ± SD (n = 3).

Values after ≈ are worked out from the molar mass of the structure shown. Counter-ions that a name gives are not always drawn.

As to `CC1=C(C(=O)O)N2C(=O)[C@@H](NC(=O)[C@H](N)C3=CCC=CC3)[C@H]2SC1` [C, cefradine, reference compound], the minimum inhibitory concentration (MIC) is 200 µg/mL (≈ 572 µM) in the data set on B. subtilis (CMCC63501) (setting [5]); 12.5 µg/mL (≈ 35.8 µM) in data set [1]; 50 µg/mL (≈ 143 µM) in the data set with S. aureus (CMCC26003) (setting [6]); > 200 µg/mL in the data set with MRSA (Staphylococcus aureus); 12.5 µg/mL (≈ 35.8 µM) in [2]; 12.5 µg/mL (≈ 35.8 µM) in the data set with E. coli (CMCC44102). The compound further gave a minimum inhibitory concentration (MIC) against B. cereus (CMCC63302) (setting [7]) of 200 µg/mL (≈ 572 µM).
On to `CC1(O)CCC2(C(=O)O)CCC3(C)C(=CCC4C5(C)CC(O)C(O)C(C)(C)C5CCC43C)C2C1` (stereo not drawn) [Compound 1, 2α,3β,20α-trihydroxy-30-norolean-12-en-28-oic acid], for which the minimum inhibitory concentration (MIC) (against B. subtilis (CMCC63501) (setting [5]); in [1]; with S. aureus (CMCC26003) (setting [6]); against MRSA (Staphylococcus aureus); in data set [2]; with E. coli (CMCC44102)) was > 200 µg/mL in each case. In the data set with B. cereus (CMCC63302) (setting [7]), the minimum inhibitory concentration (MIC) is > 200 µg/mL. The IC50 at 72 h in “Cytotoxicity, MTT method” was > 100 µM; in the data set “Cytotoxicity, MTT method” (setting [8]) it was > 100 µM; in the data set “Cytotoxicity, MTT method” (setting [9]), > 100 µM.
As for `C=C1CCC2(C(=O)O)CCC3(C)C(=CCC4C5(C)CC(O)C(O)C(C)(C=O)C5CCC43C)C2C1` (stereo not drawn) [Compound 2, 2α,3β-dihydroxy-23-oxo-30-norolean-12,20(29)-dien-28-oic acid], the MIC (in the data set with B. subtilis (CMCC63501) (setting [5]); in data set [1]; against S. aureus (CMCC26003) (setting [6]); with MRSA (Staphylococcus aureus); in data set [2]; in the data set with E. coli (CMCC44102)) was > 200 µg/mL each time. For the same compound, the MIC in the data set on B. cereus (CMCC63302) (setting [7]) is > 200 µg/mL. In addition, the IC50 at 72 h is > 100 µM in “Cytotoxicity, MTT method”; > 100 µM in the data set “Cytotoxicity, MTT method” (setting [8]); > 100 µM in “Cytotoxicity, MTT method” (setting [9]).
For the compound `C=C1CC[C@]2(C(=O)O)CC[C@]3(C)C(=CCC4[C@@]5(C)CC[C@H](O)C(C)(C)C5CC[C@]43C)C2C1` (stereo partly drawn) [Compound 3, 3β-akebonoic acid], the minimum inhibitory concentration (MIC) against B. subtilis (CMCC63501) (B. subtilis (CMCC63501)) is 12.5 µg/mL (≈ 28.4 µM); in the data set on B. subtilis (CMCC63501) (setting [5]), 12.5 to 25 µg/mL (≈ 28.4 to 56.7 µM); in [1] it was > 200 µg/mL; against S. aureus (CMCC26003) (S. aureus (CMCC26003)), 25 µg/mL (≈ 56.7 µM); against S. aureus (CMCC26003) (setting [6]), 12.5 to 25 µg/mL (≈ 28.4 to 56.7 µM); with MRSA it was 25 µg/mL (≈ 56.7 µM). The minimum inhibitory concentration (MIC) in the data set on MRSA (Staphylococcus aureus) was 12.5 to 25 µg/mL (≈ 28.4 to 56.7 µM); in [2], > 200 µg/mL; against E. coli (CMCC44102), > 200 µg/mL; against B. cereus (CMCC63302) (B. cereus (CMCC63302)), 25 µg/mL (≈ 56.7 µM); in the data set with B. cereus (CMCC63302) (setting [7]), 12.5 to 25 µg/mL (≈ 28.4 to 56.7 µM). For the same compound, the “MIC toward MRSA, fold stronger than the reference compound kanamycin” value in the data set with MRSA (MIC compared with kanamycin) was “about five-fold”. In addition, the IC50 at 72 h turned out to be 52.9 ± 5.28 µM in “Cytotoxicity, MTT method”; 49.5 ± 8.64 µM in the data set “Cytotoxicity, MTT method” (setting [8]); 28.6 ± 7.41 µM in the data set “Cytotoxicity, MTT method” (setting [9]).
Take `C=C1CC[C@]2(C(=O)O)CC[C@]3(C)C(=CCC4[C@@]5(C)C[C@@H](O)[C@H](O)C(C)(C)C5CC[C@]43C)C2C1` (stereo partly drawn) [Compound 4, 2α,3β-dihydroxy-30-noroleana-12,20(29)-dien-28-oic acid]: the MIC against B. subtilis (CMCC63501) (setting [5]) is 25 µg/mL (≈ 54.7 µM); in data set [1], > 200 µg/mL; with S. aureus (CMCC26003) (setting [6]) it was 200 µg/mL (≈ 438 µM); against MRSA (Staphylococcus aureus), 200 µg/mL (≈ 438 µM); in data set [2], > 200 µg/mL; against E. coli (CMCC44102), > 200 µg/mL. Besides, the minimal inhibitory concentration (MIC) against B. cereus (CMCC63302) (setting [7]) was determined as 50 µg/mL (≈ 109 µM). Further, the IC50 in data set [3] was determined as 8.77 ± 0.59 µM. The IC50 at 72 h in the data set “Cytotoxicity, MTT method” is 14.3 ± 0.49 µM; in the data set “Cytotoxicity, MTT method” (setting [8]) it was 8.8 µM; in “Cytotoxicity, MTT method” (setting [9]), 16.33 ± 0.12 µM.
As to `C=C1CC[C@]2(C(=O)O)CC[C@]3(C)C(=CCC4[C@@]5(C)CC[C@@H](O)C(C)(C)C5CC[C@]43C)C2C1` (stereo partly drawn) [Compound 5, 3α-akebonoic acid], the MIC against B. subtilis (CMCC63501) (setting [5]) is 50 µg/mL (≈ 113 µM); in [1] it was > 200 µg/mL; in the data set with S. aureus (CMCC26003) (setting [6]), > 200 µg/mL; with MRSA (Staphylococcus aureus), > 200 µg/mL; in [2], > 200 µg/mL; with E. coli (CMCC44102), > 200 µg/mL. In the data set on B. cereus (CMCC63302) (setting [7]), this compound had an MIC of 25 µg/mL (≈ 56.7 µM). Besides, the 50% inhibitory concentration (IC50) at 72 h in “Cytotoxicity, MTT method” was determined as 10.4 ± 1.17 µM; in “Cytotoxicity, MTT method” (setting [8]), 10.6 ± 0.69 µM; in “Cytotoxicity, MTT method” (setting [9]), 5.6 µM. Moreover, in data set [4], the IC50 stood at 5.61 µM.
Regarding `C=C1CC[C@]2(C(=O)O)CC[C@]3(C)C(=CCC4[C@@]5(C)CC[C@@H](O)[C@](C)(CO)C5CC[C@]43C)C2C1` (stereo partly drawn) [Compound 6, quinatic acid], the minimum inhibitory concentration (MIC) with B. subtilis (CMCC63501) (setting [5]) was 12.5 µg/mL (≈ 27.4 µM); in data set [1], > 200 µg/mL; against S. aureus (CMCC26003) (setting [6]), > 200 µg/mL; in the data set on MRSA (Staphylococcus aureus) it was > 200 µg/mL; in [2], > 200 µg/mL; in the data set on E. coli (CMCC44102), > 200 µg/mL. Also, inhibition of growth against B. cereus (CMCC63302) (setting [7]) (MIC) required 50 µg/mL (≈ 109 µM). Besides, the IC50 at 72 h in the data set “Cytotoxicity, MTT method” is > 100 µM; in the data set “Cytotoxicity, MTT method” (setting [8]), > 100 µM; in “Cytotoxicity, MTT method” (setting [9]), > 100 µM.
For the compound `NC[C@H]1O[C@H](O[C@H]2[C@H](O)[C@@H](O[C@H]3O[C@H](CO)[C@@H](O)[C@H](N)[C@H]3O)[C@H](N)C[C@@H]2N)[C@H](O)[C@@H](O)[C@@H]1O` [K, kanamycin sulfate, reference compound], the minimum inhibitory concentration (MIC) was 3.9 µg/mL against B. subtilis (CMCC63501) (setting [5]); 3.9 µg/mL in [1]; 1.9 µg/mL against S. aureus (CMCC26003) (setting [6]); 125 µg/mL in the data set on MRSA (Staphylococcus aureus); 3.9 µg/mL in [2]; 3.9 µg/mL against E. coli (CMCC44102). Further, the minimal inhibitory concentration (MIC) with B. cereus (CMCC63302) (setting [7]) worked out at 3.9 µg/mL.

One may read the MIC as the least concentration at which growth counts as inhibited. A high value points to weaker potency. The term IC50 denotes the concentration needed to halve the response being measured.
